Molecules are shown by their SMILES.

For seven molecules, Activity and IC50 results are on record in ChEMBL document CHEMBL1153890, “Total synthesis and biological evaluation of novel C2-C6 region analogues of dictyostatin” (Bioorg Med Chem, 2009).

In assay [1] the test system is PANC-1. Description: Cell cycle arrest in human PANC1 cells assessed as accumulation at S phase at 100 nM after 24 hrs by flow cytometry. It is filed as functional.
For assay [2], the system named is PANC-1. The experiment in a line: Cell cycle arrest in human PANC1 cells assessed as accumulation at G1 phase at 100 nM after 24 hrs by flow cytometry. In kind it is functional. (A flow cytometer gives signals particle by particle.)
In assay [3] the test system is PANC-1. Description: Cell cycle arrest in human PANC1 cells assessed as accumulation at G2/M phase at 100 nM after 24 hrs by flow cytometry. It is filed as functional.
For the next assay, the system named is ASPC1. Description: Growth inhibition of human AsPC1 cells after 72 hrs by MTT assay. In kind it is functional, cell-based. As to conditions: ASPC1, 72 h.
Assay [4] concerns PANC-1. The experiment in a line: Growth inhibition of human PANC1 cells after 72 hrs by MTT assay. In kind it is functional, cell-based. As to conditions: PANC-1, 72 h. A general note: Tetrazolium assays rely on reduction of a dye to a coloured formazan, in cell work by metabolically active cells.
Assay [5] can be described thus: Growth inhibition of paclitaxel-resistant human NCI/ADR cells after 72 hrs by MTT assay. The conditions noted are these: NCI/ADR-RES. It is filed as functional, cell-based.
For the next assay, the system named is DLD-1. The experiment in a line: Growth inhibition of human DLD1 cells after 72 hrs by MTT assay. It is filed as functional, cell-based. As to conditions: DLD-1, 72 h.

For `C=C/C=C\[C@H](C)[C@@H]1OC(=O)/C=C\C=C\[C@@H](C)[C@@H](O)C[C@H](O)/C=C\[C@H](C)[C@H](O)[C@@H](C)C[C@@H](C)CC[C@@H](O)[C@@H]1C` [DICTYOSTATIN], the values for the Activity with PANC-1 [1], with PANC-1 [2] and in the assay with PANC-1 [3] were 14%, 4.2% and 82%, respectively.

In general, IC50 refers to the point on the concentration scale where inhibition reaches its midpoint. On to `C=C/C=C\[C@H](C)[C@H](O)[C@@H](C)[C@H]1CC[C@H](C)C[C@H](C)[C@@H](O)[C@@H](C)/C=C\[C@@H](O)C[C@H](O)[C@H](C)/C=C/CCC(=O)O1`, for which the IC50 in the assay on ASPC1 stood at 3.1 µM; in the assay with PANC-1 [4], 1.3 µM; in assay [5], 1.6 µM; in the assay with DLD-1 it was 0.93 µM.

With `C=C/C=C\[C@H](C)[C@@H]1OC(=O)CC/C=C/[C@@H](C)[C@@H](O)C[C@H](O)/C=C\[C@H](C)[C@H](O)[C@@H](C)C[C@@H](C)CC[C@@H](O)[C@@H]1C`, the Activity in the assay with PANC-1 [1] amounted to 17%; in the assay on PANC-1 [2] it was 9%; with PANC-1 [3] it was 75%.

On to `C=C/C=C\[C@H](C)[C@H](O)[C@@H](C)[C@H]1CC[C@H](C)C[C@H](C)[C@@H](O)[C@@H](C)/C=C\[C@@H](O)C[C@H](O)[C@H](C)CCCCC(=O)O1`, for which the 50% inhibitory concentration (IC50) in the assay on ASPC1 stood at 4.9 µM; in the assay with PANC-1 [4], 3.2 µM; in assay [5] it was 3.1 µM; in the assay with DLD-1, 1.5 µM.

Regarding `C=C/C=C\[C@H](C)[C@@H]1OC(=O)/C=C\C=C\[C@@H](C)[C@@H](O)C[C@H](O)/C=C\[C@H](C)[C@H](O)[C@@H](C)CCCC[C@@H](O)[C@@H]1C`, in assay [5], the IC50 worked out at 1.5 µM. This counts as single-digit micromolar.

Consider `C=C/C=C\[C@H](C)[C@@H]1OC(=O)/C=C\C=C\C[C@@H](O)C[C@H](O)/C=C\[C@H](C)[C@H](O)[C@@H](C)C[C@@H](C)CC[C@@H](O)[C@@H]1C`, for which the values for the Activity in the assay with PANC-1 [1], with PANC-1 [2] and in the assay with PANC-1 [3] were 17%, 8% and 76%, respectively.

In the case of `C=C/C=C\[C@H](C)[C@@H]1OC(=O)CCCC[C@@H](C)[C@@H](O)C[C@H](O)/C=C\[C@H](C)[C@H](O)[C@@H](C)C[C@@H](C)CC[C@@H](O)[C@@H]1C`, the results for the Activity in the assay on PANC-1 [1], with PANC-1 [2] and with PANC-1 [3] were 9%, 6% and 84%, respectively.
